Entries after “also recorded” stand apart in the source; their conditions may differ.
Tested on: RAW264.7 cells
Test: RAW264.7 cells stimulated with LPS or poly I:C: phosphorylation (immunoblot)
Assay type: cell-based
Details: for LPS or poly I:C-stimulated phosphorylation of IRF3: LPS 0.5 μg/ml or poly I:C 50 μg/ml; for phosphorylation of TBK1 on serine 172: LPS or poly I:C stimulated
Protocol: 3T3-L1 fibroblasts (American Type Culture Collection, Manassas, Va.) were cultured and differentiated using standard methods known in the art. […] 3T3-L1 adipocytes were serum starved with 0.5% fetal bovine serum (FBS) in Dulbecco's modified eagle medium (DMEM) prior to treatment. TNFα treatments (50 ng/mL unless otherwise noted) were performed during the 24 hour prior to harvest, after pretreatment with IKKβ inhibitor compound VIII (EMD Biosciences, Philadelphia, Pa.) for 1 hour where indicated. […] Cells were treated with or without 10 nM of insulin for 15 minutes. RAW264.7 cells were serum starved with 0.5% FBS DMEM media and pre-treated with or without Cay-10576 (Cayman Chemical, Ann Arbor, Mich.). The cells were then treated with LPS (0.5 μg/ml) or poly I:C (50 μg/ml) for 1 hour. Cells were harvested for total RNA and analyzed by real-time PCR Cell lysates were resolved on SDS-PAGE and analyzed by immunoblot using the indicated antibodies.

COc1cc2ncn(-c3cc(OCc4ccccc4S(C)(=O)=O)c(C#N)s3)c2cc1OC [Cay-10576]
LPS or poly I:C-stimulated phosphorylation of IRF3: blocked
LPS or poly I:C-stimulated phosphorylation of IRF3 (listed as cayman): reverses
phosphorylation of TBK1 on serine 172: stimulated
phosphorylation of TBK1 on serine 172 (listed as cayman): inducing
IKKβ phosphorylation (listed as cayman): increased; also recorded: inducing
